The record followed here is paper PMC8480593, “Anti-influenza A virus activity and structure–activity relationship of a series of nitrobenzoxadiazole derivatives” (Journal of Enzyme Inhibition and Medicinal Chemistry, 2021).

One may read the melting point as the temperature, or range, at which the solid turns liquid.

Data set [1] relates to influenza virus A/Puerto Rico/8/34 H1N1 (PR8). Description: microbe, parasite or virus in culture. Format: cell-based.
Data set [2] shares this test system. The settings on record: A549 cells, CC50 by Trypan Blue exclusion.
The test system is the same in data set [3]. The settings on record: A549 cells; CC50 from Cell Tag in mock infected cells, IC50 by ICW.
Data set [4] in a line: in vitro. Particulars: human.
Data set [5] deals with influenza virus A/Puerto Rico/8/34 H1N1 (PR8). Description: microbe, parasite or virus in culture. Particulars: H1N1|PR8, A549, read-out: IC50, HAU – A549.
For data set [6] the test system is unchanged. Description: microbe, parasite or virus in culture. The settings on record: unidentified influenza virus, A549, read-out: IC50, ICW – A549.
Data set [7] relates to MDCK cells. The experiment in a line: Cytotoxicity on MDCK cells (MTT and Trypan Blue exclusion). Particulars: 1–30 µM, Toxic = toxic at all tested concentrations.
Setting [8] is: unidentified influenza virus, MDCK, 24 h, read-out: IC50 (concentration required to inhibit viral replication of 50%), MDCK cells infected with PR8 (m.o.i. 0.001), HAU in supernatants 24 h p.i., Inactive = at maximum tested concentration (30 µM).
The mark [9] stands for this setting: MDCK cells infected with PR8 (m.o.i. 0.001), HAU in supernatants 24 h p.i., Inactive = at maximum tested concentration (30 µM).

Read-outs that look alike come from different tables or passages of the source.

With `O=[N+]([O-])c1ccc(SCCCCCCCCO)c2nonc12` [Compound 6], the IC50 in data set [1] (setting [8]) is more than 30 µM.
In the case of `O=C(O)CCC(=O)OCCCCSc1ccc([N+](=O)[O-])c2nonc12` [Compound 9, 4–(4-((7-nitrobenzo[c][1,2,5]oxadiazol-4-yl)thio)butoxy)-4-oxobutanoic acid], the melting point is 90 to 93 °C. Also, in data set [1], the “IC50 (concentration required to inhibit viral replication of 50%)” value is listed as “effective against IV”. The IC50 in data set [1] (setting [8]) was determined as 17.1 ± 0.9 µM.
For the molecule `O=C(O)CCC(=O)OCCCCCCSc1ccc([N+](=O)[O-])c2nonc12` [Compound 10], the IC50 in data set [1] (setting [8]) came to 22.2 ± 1.4 µM.
Molecule `O=C(O)CCC(=O)OCCOCCSc1ccc([N+](=O)[O-])c2nonc12` [Compound 11, 4–(2–(2-((7-nitrobenzo[c][1,2,5]oxadiazol-4-yl)thio)ethoxy)ethoxy)-4-oxobutanoic acid] showed a melting point of 74 to 76 °C. In addition, the “IC50 (concentration required to inhibit viral replication of 50%)” value in data set [1] is “effective against IV”. In addition, in data set [1] (setting [8]), the IC50 was more than 30 µM.
Take `COC(=O)CCSc1ccc([N+](=O)[O-])c2nonc12` [Compound 12]: in data set [1], the “IC50 (concentration required to inhibit viral replication of 50%)” value was “effective against IV”. In data set [2], the “SI (CC50/IC50 HAU – A549)” value was 11. Moreover, in data set [3], the “SI (CC50/IC50 ICW – A549)” value is recorded as 5. The molecule also displayed a CC50 at 24 h in data set [4] of 54.5 µM. Also, the values for the IC50 in data set [5] and in data set [6] were 5.1 ± 0.2 µM and 10 ± 0.5 µM, respectively.
`O=C(CCSc1ccc([N+](=O)[O-])c2nonc12)NCCO` [Compound 14]: the “IC50 (concentration required to inhibit viral replication of 50%)” value in data set [1] (setting [9]) is on record as “Inactive^b”. The IC50 in data set [1] (setting [8]) was more than 30 µM.
As to `O=C1CCN(C(=O)CCSc2ccc([N+](=O)[O-])c3nonc23)CC1` [Compound 16], in data set [7], the Cytotoxicity entry is reported as “Toxic^a”.
Regarding `COC(=O)C(CSc1ccc([N+](=O)[O-])c2nonc12)NC(=O)OC(C)(C)C` (stereo not shown) [Compound 17], the “IC50 (concentration required to inhibit viral replication of 50%)” value in data set [1] is listed as “effective against IV”. Further, the “SI (CC50/IC50 HAU – A549)” value in data set [2] was found to be 2. For the same molecule, the “SI (CC50/IC50 ICW – A549)” value in data set [3] came out at 3. Besides, the IC50 in data set [5] stood at 11.7 ± 1 µM; in data set [6], 9.6 ± 0.8 µM.
In the case of `CC(=O)N[C@@H](CSc1ccc([N+](=O)[O-])c2nonc12)C(=O)O` [Compound 19, N-acetyl-S-(7-nitrobenzo[c][1,2,5]oxadiazol-4-yl)cysteine], the melting point was in the range of 166 to 168 °C. Further, the “IC50 (concentration required to inhibit viral replication of 50%)” value in data set [1] is on record as “effective against IV”. Besides, the IC50 in data set [1] (setting [8]) came out at 24 ± 2.3 µM.
Consider `CC(C)(C)Sc1ccc([N+](=O)[O-])c2nonc12` [Compound 21], for which, in data set [1] (setting [9]), the “IC50 (concentration required to inhibit viral replication of 50%)” value was “Inactive^b”. For the same molecule, in data set [1] (setting [8]), the IC50 is more than 30 µM.
Take `O=[N+]([O-])c1ccc(Sc2ncccn2)c2nonc12` [Compound 22, 4-nitro-7-(pyrimidin-2-ylthio)benzo[c][1,2,5]oxadiazole]: the melting point was in the range of 144 to 147 °C.
Molecule `O=[N+]([O-])c1ccc(Sc2nc3ccccc3[nH]2)c2nonc12` [Compound 23, 4-((1H-benzo[d]imidazol-2-yl)thio)-7-nitrobenzo[c][1,2,5]oxadiazole] yielded a melting point of 206 to 208 °C. The “IC50 (concentration required to inhibit viral replication of 50%)” value in data set [1] (setting [9]) is reported as “Inactive^b”. In addition, in data set [1] (setting [8]), the IC50 was more than 30 µM.
In the case of `O=[N+]([O-])c1ccc(SCc2ccccc2)c2nonc12` [Compound 25], the “IC50 (concentration required to inhibit viral replication of 50%)” value in data set [1] is “effective against IV”. Further, the IC50 in data set [1] (read-out: IC50 (concentration required to inhibit viral replication of 50%), MDCK cells infected with PR8 (m.o.i. 0.001), HAU in supernatants 24 h p.i., Inactive = at maximum tested concentration (30 µM)) is 6.3 ± 0.5 µM; in data set [1] (setting [8]) it was less than 10 µM; in data set [5], 1.9 ± 0.1 µM; in data set [6], 8.9 ± 0.6 µM. The “SI (CC50/IC50 HAU – A549)” value in data set [2] amounted to 6. Further, in data set [3], the “SI (CC50/IC50 ICW – A549)” value was determined as 4.
For `O=C(O)c1ccccc1Sc1ccc([N+](=O)[O-])c2nonc12` [Compound 27], the “IC50 (concentration required to inhibit viral replication of 50%)” value in data set [1] (setting [9]) is recorded as “Inactive^b”. The IC50 in data set [1] (setting [8]) is more than 30 µM.
On to `O=C(O)c1cccc(Sc2ccc([N+](=O)[O-])c3nonc23)c1` [Compound 28], for which the “IC50 (concentration required to inhibit viral replication of 50%)” value in data set [1] (setting [9]) was “Inactive^b”. In data set [1] (setting [8]), the IC50 was more than 30 µM.
The corresponding values for `CCOC(=O)c1ccc(Sc2ccc([N+](=O)[O-])c3nonc23)cc1` [Compound 30] are “Inactive^b” and more than 30 µM.
The corresponding values for `NC(=O)c1ccc(Sc2ccc([N+](=O)[O-])c3nonc23)cc1` [Compound 31] are “Inactive^b” and more than 30 µM.
In the case of `CN(C)C(=O)c1ccc(Sc2ccc([N+](=O)[O-])c3nonc23)cc1` [Compound 32], in data set [1] (setting [8]), the IC50 was more than 30 µM.
As to `O=C(NO)c1ccc(Sc2ccc([N+](=O)[O-])c3nonc23)cc1` [Compound 33], in data set [1] (setting [9]), the “IC50 (concentration required to inhibit viral replication of 50%)” value was “Inactive^b”. In addition, the IC50 in data set [1] (setting [8]) is more than 30 µM.
The matching figures for `O=C(NCCO)c1ccc(Sc2ccc([N+](=O)[O-])c3nonc23)cc1` [Compound 37]: “Inactive^b” and more than 30 µM.
The matching figures for `CN(C)CCNC(=O)c1ccc(Sc2ccc([N+](=O)[O-])c3nonc23)cc1` [Compound 38]: “Inactive^b” and more than 30 µM.
In the case of `O=C(O)Cc1ccc(Sc2ccc([N+](=O)[O-])c3nonc23)cc1` [Compound 39], in data set [1] (setting [9]), the “IC50 (concentration required to inhibit viral replication of 50%)” value is listed as “Inactive^b”. Besides, the IC50 in data set [1] (setting [8]) was more than 30 µM.
Consider `O=C(O)CCc1ccc(Sc2ccc([N+](=O)[O-])c3nonc23)cc1` [Compound 40], for which the “IC50 (concentration required to inhibit viral replication of 50%)” value in data set [1] was “effective against IV”. Further, the IC50 in data set [1] (setting [8]) stood at 18.3 ± 1.6 µM.
The corresponding values for `O=C(O)c1ccc(CSc2ccc([N+](=O)[O-])c3nonc23)cc1` [Compound 41] are “effective against IV” and 10.8 ± 0.6 µM.
Take `CCOC(=O)c1ccc(CSc2ccc([N+](=O)[O-])c3nonc23)cc1` [Compound 42]: the IC50 in data set [1] (setting [8]) is 17.2 ± 1.6 µM.
For the molecule `O=[N+]([O-])c1ccc([S+]([O-])CCCCCCO)c2nonc12` (stereo not shown) [Compound 43], the “IC50 (concentration required to inhibit viral replication of 50%)” value in data set [1] (setting [9]) is given as “Inactive^b”. The IC50 in data set [1] (setting [8]) is more than 30 µM.
For the molecule `O=[N+]([O-])c1ccc(S(=O)(=O)CCCCCCO)c2nonc12` [Compound 44], in data set [1] (setting [9]), the “IC50 (concentration required to inhibit viral replication of 50%)” value is listed as “Inactive^b”. In addition, the IC50 in data set [1] (setting [8]) was more than 30 µM.
In the case of `O=[N+]([O-])c1ccc(NCCCCCCO)c2nonc12` [Compound 45], the “IC50 (concentration required to inhibit viral replication of 50%)” value in data set [1] (setting [9]) is “Inactive^b”. In addition, in data set [1] (setting [8]), the IC50 was more than 30 µM. Also, the Cytotoxicity result in data set [7] is given as “NOT toxic”.
